The target in one assay is T1, human NHE3 (Homo sapiens, UniProt P48764).
T1 sequence (P48764 26-834): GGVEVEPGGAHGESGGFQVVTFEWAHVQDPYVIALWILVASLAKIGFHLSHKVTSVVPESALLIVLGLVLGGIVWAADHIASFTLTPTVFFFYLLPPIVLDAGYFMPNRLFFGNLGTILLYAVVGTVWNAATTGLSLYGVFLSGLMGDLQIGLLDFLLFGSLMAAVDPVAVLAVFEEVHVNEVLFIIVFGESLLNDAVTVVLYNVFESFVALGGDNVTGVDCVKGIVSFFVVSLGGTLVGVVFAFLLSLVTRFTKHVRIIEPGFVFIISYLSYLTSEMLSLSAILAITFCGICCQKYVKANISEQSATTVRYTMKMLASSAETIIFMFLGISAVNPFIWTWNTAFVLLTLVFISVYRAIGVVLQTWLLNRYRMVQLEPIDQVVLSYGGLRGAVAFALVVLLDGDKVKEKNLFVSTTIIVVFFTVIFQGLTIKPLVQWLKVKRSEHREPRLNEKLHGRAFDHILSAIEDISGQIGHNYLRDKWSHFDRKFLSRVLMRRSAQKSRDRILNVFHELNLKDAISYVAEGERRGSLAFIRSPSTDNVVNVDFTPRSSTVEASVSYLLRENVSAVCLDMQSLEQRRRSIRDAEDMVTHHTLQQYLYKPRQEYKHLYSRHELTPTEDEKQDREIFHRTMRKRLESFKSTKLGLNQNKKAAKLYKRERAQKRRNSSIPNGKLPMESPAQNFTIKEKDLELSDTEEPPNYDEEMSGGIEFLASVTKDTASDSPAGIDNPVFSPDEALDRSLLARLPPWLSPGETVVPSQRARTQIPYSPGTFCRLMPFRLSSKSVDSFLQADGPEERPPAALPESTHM
Briefly: NHE3 inhibition test (recovery of intracellular pH in cell line stably expressing human NHE3). It counts as cell-based. As to conditions: OK cells deficient in endogenous NHE stably expressing human NHE3; BCECF fluorescence, initial rate of pH recovery; read-out: human NHE3 inhibitory activity IC50. In outline:
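Opossum kidney cells lacking endogenous NHE, stably expressing human NHE3, loaded with BCECF-AM and acid-loaded by NH4Cl washout. Compound in Na-free buffer, then Na-containing buffer (pH 7.4) added; initial pH-recovery rate by BCECF fluorescence, IC50 versus no-compound recovery.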

The next assay has as its system SD rat. Briefly: 32P-phosphate oral loading test using SD rat (phosphorus absorption inhibitory effect). It counts as in vivo. As to conditions: Rattus norvegicus, 0.5 h, SD male rats, plasma radioactivity 30 minutes after 32P-phosphate solution, vs control group, read-out: Rate of inhibition of phosphate absorption; for inhibition in vivo at 3 mg/kg: oral dose 3 mg/kg. How it is done: Phosphorus Absorption Inhibitory Effect of the Compound of the Present Invention in ^32P-Phosphate Oral Loading Test Using SD Rat
8-week-old SD male rats (Japan SLC, Inc.) were used as laboratory animals. Each test compound was suspended or dissolved at a concentration of 0.2 mg/mL or 0.6 mg/mL in Japanese Pharmacopoeia water for injection (manufactured by Hikari Pharmaceutical Co., Ltd.) and orally administered to each rat at a dose of 5 ml/kg body weight. Japanese Pharmacopoeia water for injection was administered at the same dose as above to a control group. 5 minutes after the administration of the test compound or water for injection, a phosphate solution (1.3 mM NaH2PO4) containing 32P-phosphate (PerkinElmer Inc.) was administered thereto at a dose of 5 ml/kg. 30 minutes after the administration of the phosphate solution, blood was collected from the tail vein, and the blood sample was immediately mixed with EDTA-2K (manufactured by Dojindo Laboratories). Then, the mixture was centrifuged at 3000 rpm at 4° C. for 10 minutes to recover plasma.
The radioactivity in 100 μL of the plasma was measured using a liquid scintillation counter and used as a phosphate absorption count. The radioactivity in the plasma of the control group was used as a control, and the rate of inhibition of phosphate absorption was determined according to the following expression: Rate of inhibition of phosphate absorption (%)=(1−Phosphate absorption count of the test compound administration group/Phosphate absorption count of the control group)×100 (2) Results

The structures appear in SMILES notation. Structures can show the parent of a compound that is named as a salt.

Consider `CN1Cc2c(Cl)cc(Cl)cc2[C@H](c2cccc(-c3cn(CCOCCOCCOCCNC(=O)NCCCCNC(=O)NCCOCCOCCOCCn4cc(-c5cccc([C@@H]6CN(C)Cc7c(Cl)cc(Cl)cc76)c5)nn4)nn3)c2)C1` [Example 6-2, 1,1′-Butane-1,4-diylbis {3-[2-(2-{2-[2-(4-{3-[(4S)-6,8-dichloro-2-methyl-1,2,3,4-tetrahydroisoquinolin-4-yl]phenyl}-1H-1,2,3-triazol-1-yl)ethoxy]ethoxy}ethoxy)ethyl]urea}hydrochloride], for which, on human NHE3, the IC50 stood at 5.7 nM. Also, the inhibition in vivo at 1 mg/kg with SD rat (oral dose 1 mg/kg) is 47%.

Consider `CN1Cc2c(Cl)cc(Cl)cc2[C@H](c2cccc(-c3cn(CCOCCOCCNC(=O)COCC(=O)NCCOCCOCCn4cc(-c5cccc([C@@H]6CN(C)Cc7c(Cl)cc(Cl)cc76)c5)nn4)nn3)c2)C1` [Example 6-4, 1-(4-{3-[(4S)-6,8-Dichloro-2-methyl-1,2,3,4-tetrahydroisoquinolin-4-yl]phenyl}-1H-1,2,3-triazol-1-yl)-N-(2-{2-[2-(4-{3-[(4S)-6,8-dichloro-2-methyl-1,2,3,4-tetrahydroisoquinolin-4-yl]phenyl}-1H-1,2,3-triazol-1-yl)ethoxy]ethoxy}ethyl)-10-oxo-3,6,12-trioxa-9-azatetradecan-14-amide hydrochloride], for which the concentration for half-maximal inhibition (IC50) at human NHE3 was determined as 97.6 nM. The inhibition in vivo at 3 mg/kg in the assay with SD rat was -5%.

For `CN1Cc2c(Cl)cc(Cl)cc2[C@H](c2cccc(-c3cn(CCOCCOCCNC(=O)Nc4ccc(NC(=O)NCCOCCOCCn5cc(-c6cccc([C@@H]7CN(C)Cc8c(Cl)cc(Cl)cc87)c6)nn5)cc4)nn3)c2)C1` [Example 6-5, 1,1′-Benzene-1,4-diylbis[3-(2-{2-[2-(4-{3-[(4S)-6,8-dichloro-2-methyl-1,2,3,4-tetrahydroisoquinolin-4-yl]phenyl}-1H-1,2,3-triazol-1-yl)ethoxy]ethoxy}ethyl)urea]hydrochloride], the IC50 on human NHE3 was found to be 9.5 nM. The inhibition in vivo at 3 mg/kg with SD rat is 46%.

Take `CN1Cc2c(Cl)cc(Cl)cc2[C@H](c2cccc(-c3cn(CCOCCOCCOCCNC(=O)[C@@H](O)[C@H](O)[C@H](O)[C@@H](O)C(=O)NCCOCCOCCOCCn4cc(-c5cccc([C@@H]6CN(C)Cc7c(Cl)cc(Cl)cc76)c5)nn4)nn3)c2)C1` [Example 6-8, (2R,3S,4R,5S)—N,N′-Bis[2-(2-{2-[2-(4-{3-[(4S)-6,8-dichloro-2-methyl-1,2,3,4-tetrahydroisoquinolin-4-yl]phenyl}-1H-1,2,3-triazol-1-yl)ethoxy]ethoxy}ethoxy)ethyl]-2,3,4,5-tetrahydroxyhexanediamide hydrochloride]: the IC50 on human NHE3 is 0.8 nM. In addition, the inhibition in vivo at 3 mg/kg with SD rat is 34%.

As for `CN1Cc2c(Cl)cc(Cl)cc2[C@H](c2cccc(-c3cn(CCOCCOCCOCCOCCNC(=O)[C@H](O)[C@@H](O)C(=O)NCCOCCOCCOCCOCCn4cc(-c5cccc([C@@H]6CN(C)Cc7c(Cl)cc(Cl)cc76)c5)nn4)nn3)c2)C1` [Example 6-9, (2R,3R)—N,N′-Bis[14-(4-{3-[(4S)-6,8-dichloro-2-methyl-1,2,3,4-tetrahydroisoquinolin-4-yl]phenyl}-1H-1,2,3-triazol-1-yl)-3,6,9,12-tetraoxatetradec-1-yl]-2,3-dihydroxybutanediamide hydrochloride], the IC50 on human NHE3 was 4.1 nM. Also, in the assay on SD rat, the inhibition in vivo at 3 mg/kg was 53%.

On to `CN1Cc2c(Cl)cc(Cl)cc2[C@H](c2cccc(-c3cn(CCOCCOCCOCCOCCOCCNC(=O)[C@H](O)[C@@H](O)C(=O)NCCOCCOCCOCCOCCOCCn4cc(-c5cccc([C@@H]6CN(C)Cc7c(Cl)cc(Cl)cc76)c5)nn4)nn3)c2)C1` [Example 6-10, (2R,3R)—N,N′-Bis[17-(4-{3-[(4S)-6,8-dichloro-2-methyl-1,2,3,4-tetrahydroisoquinolin-4-yl]phenyl}-1H-1,2,3-triazol-1-yl)-3,6,9,12,15-pentaoxaheptadec-1-yl]-2,3-dihydroxybutanediamide hydrochloride], for which the IC50 on human NHE3 came to 6.2 nM. Further, in the assay on SD rat, the inhibition in vivo at 3 mg/kg amounted to 38%.

Consider `CN1Cc2c(Cl)cc(Cl)cc2[C@H](c2cccc(-c3cn(CCOCCOCCOCCOCCNC(=O)[C@@H](O)[C@H](O)[C@H](O)[C@@H](O)C(=O)NCCOCCOCCOCCOCCn4cc(-c5cccc([C@@H]6CN(C)Cc7c(Cl)cc(Cl)cc76)c5)nn4)nn3)c2)C1` [Example 6-11, (2R,3S,4R,5S)—N,N′-Bis[14-(4-{3-[(4S)-6,8-dichloro-2-methyl-1,2,3,4-tetrahydroisoquinolin-4-yl]phenyl}-1H-1,2,3-triazol-1-yl)-3,6,9,12-tetraoxatetradec-1-yl]-2,3,4,5-tetrahydroxyhexanediamide hydrochloride], for which, on human NHE3, the IC50 stood at 1.4 nM. Besides, in the assay with SD rat, the inhibition in vivo at 3 mg/kg came to 33%.

As for `CN1Cc2c(Cl)cc(Cl)cc2[C@@H](c2cccc(-c3cn(CCOCCOCCOCCOCCOCCNC(=O)[C@H](O)[C@@H](O)[C@@H](O)[C@H](O)C(=O)NCCOCCOCCOCCOCCOCCn4cc(-c5cccc([C@@H]6CN(C)Cc7c(Cl)cc(Cl)cc76)c5)nn4)nn3)c2)C1` [Example 6-12, (2R,3S,4R,5S)—N-[17-(4-{3-[(4R)-6,8-Dichloro-2-methyl-1,2,3,4-tetrahydroisoquinolin-4-yl]phenyl}-1H-1,2,3-triazol-1-yl)-3,6,9,12,15-pentaoxaheptadec-1-yl]-N′-[17-(4-{3-[(4S)-6,8-dichloro-2-methyl-1,2,3,4-tetrahydroisoquinolin-4-yl]phenyl}-1H-1,2,3-triazol-1-yl)-3,6,9,12,15-pentaoxaheptadec-1-yl]2,3,4,5-tetrahydroxyhexanediamide hydrochloride], the IC50 at human NHE3 worked out at 2.3 nM. Further, the inhibition in vivo at 3 mg/kg in the assay with SD rat is 37%.

With `CN1Cc2c(Cl)cc(Cl)cc2[C@H](c2cccc(-c3cc(NCCOCCOCCNC(=O)NCCCCNC(=O)NCCOCCOCCNc4cc(-c5cccc([C@@H]6CN(C)Cc7c(Cl)cc(Cl)cc76)c5)ncn4)ncn3)c2)C1` [Example 7-2, 1,1′-Butane-1,4-diylbis {3-[2-(2-{2-[(6-{3-[(4S)-6,8-dichloro-2-methyl-1,2,3,4-tetrahydroisoquinolin-4-yl]phenyl}pyrimidin-4-yl)amino]ethoxy}ethoxy)ethyl]urea} tetrahydrochloride], the IC50 on human NHE3 came out at 9.4 nM. Further, in the assay with SD rat, the inhibition in vivo at 3 mg/kg is 23%.

Consider `CN1Cc2c(Cl)cc(Cl)cc2[C@H](c2cccc(-c3ccnc(NCCOCCOCCNC(=O)NCCCCNC(=O)NCCOCCOCCNc4cc(-c5cccc([C@@H]6CN(C)Cc7c(Cl)cc(Cl)cc76)c5)ccn4)c3)c2)C1` [Example 7-4, 1,1′-Butane-1,4-diylbis {3-[2-(2-{2-[(4-{3-[(4S)-6,8-dichloro-2-methyl-1,2,3,4-tetrahydroisoquinolin-4-yl]phenyl}pyridin-2-yl)amino]ethoxy}ethoxy)ethyl]urea}pentahydrochloride], for which the IC50 at human NHE3 was determined as 8.4 nM. In addition, the inhibition in vivo at 3 mg/kg in the assay with SD rat was 27%.

`CN1Cc2c(Cl)cc(Cl)cc2[C@H](c2cccc(-c3cnn(CCOCCOCCNC(=O)NCCCCNC(=O)NCCOCCOCCn4cc(-c5cccc([C@@H]6CN(C)Cc7c(Cl)cc(Cl)cc76)c5)cn4)c3)c2)C1` [Example 7-5, 1,1′-Butane-1,4-diylbis[3-(2-{2-[2-(4-{3-[(4S)-6,8-dichloro-2-methyl-1,2,3,4-tetrahydroisoquinolin-4-yl]phenyl}-1H-pyrazol-1-yl)ethoxy]ethoxy}ethyl)urea]diformate]: the IC50 at human NHE3 turned out to be 4.5 nM. In addition, in the assay on SD rat, the inhibition in vivo at 3 mg/kg was 23%.

The term IC50 denotes the concentration at which inhibition is half-maximal.

Values taken from patent US9932331B2, “Phenyl tetrahydroisoquinoline compound substituted with heteroaryl” (TAISHO PHARMACEUTICAL CO., LTD, priority 2014, dated 2018).
